The series in a line: Static partitioning test for DME in brine and oil. Particulars: room temperature, >12 hours equilibration, 150 psi. It is filed as physicochemical. An excerpt:
To measure partitioning of the miscible solvent in contact with oil and brine for a particular chemical concentration, salinity of aqueous phase, oil type, temperature, and pressure.
Load accumulator #1 with brine and accumulator #2 with oil. Apply vacuum to sapphire cell #1 and sapphire cell #2 on the loading side of the piston. Fill the opposite side with water or lab oil. Prepare loading loop with a known volume with liquid DME at room temperature (pressure >100 psi) to ensure a target concentration of DME when injected. Connect loading loop to sapphire cell #1 (vacuum side) and to accumulator #1. Connect the opposite side of the sapphire (water side) to BPR to keep pressure inside the cell at 150 psi. Then, displace DME from the loop with brine and inject into the sapphire cell #1. Isolate and disconnect the sapphire cell #1. Then, rock the cell until liquid DME and brine get properly mixed and homogenized. Equilibrate aqueous mix for a couple of hours. Connect the accumulator #2 with the sapphire cell #2, and the sapphire cell to the BPR. Then, inject oil into the sapphire cell #2. The volume of the injected oil is the one for the desired aqueous to oil ratio (i.e. 50/50 aqueous to oil by volume). Connect the sapphire cell #1 (DME in aqueous side) to the sapphire cell #2 (oil side) and inject DME in aqueous side to cell #2. The volume of the injected aqueous phase is the one for the desired aqueous to oil ratio. The pressure inside the sapphire cell # is controlled by BPR at 150 psi. Isolate and disconnect the sapphire cell #2. Then, rock the cell until liquid aqueous and oil get properly mixed. Let the cell equilibrate for 12 hours at room temperature (˜70° F.). Prepare a solution of 1:1 by volume of deionized water and methanol. Collect a sample of aqueous phase (DME in brine) from cell #2 and mix it with methanol solution in a volumetric proportion of 1:1. Measure DME concentration in aqueous mixture from previous step via gas chromatography (GC). Then, calculate partitioning of DME in between brine and oil phase, this is the partitioning coefficient.
KDME=DME partitioning coefficient; CDME,aq=mass fraction of DME in aqueous phase at equilibrium; and CDME,oil=mass fraction of DME in oleic phase at equilibrium.
Alternatively, to measuring DME concentration via GC and after isolating and disconnecting sapphire cell #2, both aqueous phase and oleic phase could be separated, and then individually taken to a PVT cell at 1 atm and 70° F. After DME evolves from each phase as gas, amounts of evolved DME could be measured and partitioning coefficient calculated.

Turning to `COC` [DME, dimethyl ether], the DME partition coefficient runs as follows: (0.5% DME + Methanol, Volatile Oil, salinity 115,000 ppm) 1.13; (0.5% DME, Volatile Oil, salinity 0 - DI water) 0.81; (0.5% DME, Volatile Oil, salinity 103,000 ppm) 1.15; (0.5% DME, Volatile Oil, salinity 150,000 ppm) 1.27; (0.5% DME, Volatile Oil, salinity 300,000 ppm) 1.26; (1% DME + Methanol, Black Oil, salinity 115,000 ppm) 1.87. The DME partition coefficient (1% DME + Methanol, Volatile Oil, salinity 115,000 ppm) was 2.4.

Source of the values: patent US20250289994A1, “METHODS FOR IMPROVING HYDROCARBON PRODUCTION FROM A SUBTERRANEAN FORMATION” (CHEVRON U.S.A. INC., priority 2024, published 2025).
